Literature values, collected in patent publication US12662707B2, “MYC amplification drives resistance to pan-RAS inhibitors in pancreatic cancer” (The Trustees of Columbia University in the City of New York, priority 2024, dated 2026).

System: autochthonous KPC pancreatic tumors
Conditions: reference 27; cited from earlier work

**Q.** Which “effect on survival in the KPC model” value does the source give for `Nc1ccn([C@@H]2O[C@H](CO)[C@@H](O)C2(F)F)c(=O)n1` [gemcitabine] here?
**A.** do not significantly alter survival
